From patent publication US3984410A, “Isourea acetylphosphate insecticides” (priority 1975, dated 1976) come the findings set out here.

Read-outs that look alike come from different tables or passages of the source.

What all share (format): in vivo
The subject of test [1] is housefly (Musca domestica L.). Briefly: Housefly mortality, residue on aluminum dishes. Particulars: 25 3-day old female houseflies; mortality after 48 hours. The method, then: Test compounds are diluted in acetone and aliquots are pipetted onto the bottom of 55 × 15 mm aluminum dishes. To insure even spreading of the chemical on the bottom of the dishes, 1 ml of acetone containing 0.02% peanut oil is also added to each dish. After all solvents have evaporated the dishes are placed in circular cardboard cages containing 25 3-day old female houseflies. The cages are covered on the bottom with cellophane and the top with tulle netting, and each contains a sugar-water saturated cotton plug for maintenance of the flies. Mortality is recorded after 48 hours. Test levels range from 100 μg/25 F. houseflies down to that at which approximately 50% mortality occurs.

The subject of test [2] is Green Peach Aphid [Myzus persicae (Sulzer)]. Put plainly: Green Peach Aphid spray on radish plants. Particulars: sprayed to runoff on radish plants; mortality after 48 hours. The method, then: Radish plants (Rhaphanus sativus), approximately 2 cm tall, are transplanted into sandy loam soil in 3-inch clay pots and infested with 25-50 green peach aphids of mixed ages. Twenty-four hours later they are sprayed, to the point of runoff, with 50--50 acetone-water solutions of the test chemicals. Treated plants are held in the greenhouse and mortality is recorded after 48 hours. Test concentrations range from 0.05% down to that at which 50% mortality occurs.

Test [3] concerns Black Bean Aphid [Aphis fabae (Scop.)]. Put plainly: Direct Spray Assay on Black Bean Aphid. Particulars: direct spray on nasturtium plants; mortality after 7 days. As for the experimental part: Nasturtium plants (Tropaeolum sp.), approximately 5 cm tall, are transplanted into sandy loam soil in 3-inch clay pots and infested with 25-50 black bean aphids of mixed ages. Twenty-four hours later they are sprayed, to the point of runoff, with 50--50 acetone-water solutions of the test chemicals. Treated plants are held in the greenhouse and mortality is recorded after 7 days. Test concentrations range from 0.05% down to that at which 50% mortality occurs.

For test [4] the test system is unchanged. Put plainly: Systemic Assay on Black Bean Aphid. Particulars: 168 h, read-out: Insecticide Activity - Approximate LD50, BAS (Black Bean Aphid - systemic). The method, then: Test chemicals are diluted in acetone and aliquots are thoroughly mixed into 500 grams of dry, sandy loam soil. The treated soil is placed in a pint ice cream carton and a nasturtium plant (Tropaeolum sp.) approximately 5 cm tall is transplanted into each carton. The plants are then infested with approximately 25 black bean aphids of mixed ages and placed in the greenhouse. Seven days later mortality is recorded. Test concentrations range from 10 PPM down to that at which approximately 50% mortality occurs.

The subject of test [5] is Lygus Bug [Lygus hesperus (Knight)]. Briefly: Lygus Bug spray. Particulars: spray on adult bugs; mortality after 48 hours. The method, then: Test compounds are in a 50--50 acetone-water solution. Two cc of the solutions are sprayed through a Devilbiss type EGA hand spray gun into circular cardboard cages containing one string bean pod and ten adult lygus bugs. The test cages are covered on the bottom with cellophane and the top with tulle netting. Percent mortality is recorded 48 hours later. Test concentrations range from 0.05% down to that at which approximately 50% mortality occurs.

Test [6] concerns German Cockroach [Blattella germanica (Linne)]. Briefly: German Cockroach spray. As for the experimental part:
Test compounds are diluted in a 50--50 acetone-water solution. Two cc of the solutions are sprayed through a DeVilbiss type EGA hand spray gun into circular cardboard cages containing 10 l-month-old German cockroach nymphs. The test cages are covered on the bottom with cellophane and the top with tulle netting. Percent mortality is recorded 7 days later. Test concentrations range from 0.1% down to that at which approximately 50% mortality occurs.

The test system of test [7] is Cabbage Looper [Trichoplusia ni (Hubner)]. Briefly: Cabbage Looper on dipped squash cotyledons. The note with it: second-instar larvae, cotyledon dip; 48 hours plus 5 days. As for the experimental part: (§1) Test compounds are diluted in a 50--50 acetone-water solution. Cotyledons of hyzini squash (Calabacita abobrinha), approximately 1 × 1.5 inches, are immersed in the test solutions for 2-3 seconds and placed on a wire screen to dry. The dried leaves are placed in petri dishes containing a moistened piece of filter paper and infested with five second-instar cabbage looper larvae. Mortality of the larvae is recorded 48 hours later, and a piece of synthetic media is added to dishes containing survivors. These are then held for 5 additional days to observe for any delayed effects of the test chemicals. Test concentrations range from 0.1% down to that at which approximately 50% mortality occurs.

For test [8], the system named is Tobacco Budworm [Heliothis virescens (F.)]. Briefly: Tobacco Budworm on dipped Romaine lettuce leaves. The note with it: larvae, Romaine lettuce leaf dip; 48 hours plus 5 days. As for the experimental part:
as §1
The procedure is the same as that used for the cabbage looper, except that sections of Romaine lettuce (Latica sativa) leaves were used instead of cotyledons of hyzini squash.

The test system of test [9] is Southern House Mosquito [Culex pipiens quinquefasciatus (Say)]. Put plainly: Southern House Mosquito larvae in aqueous solution. The note with it: 48 h, read-out: Insecticide Activity - Approximate LD50, MOS (Southern House Mosquito). As for the experimental part:
Insecticidal activity is determined using third-instar larvae of the mosquito (Culex pipiens quinquefasciatus). Ten larvae are placed in a 6-ounce, number 67 Dixie wax paper cup containing 100 ml of an aqueous solution of the test chemical. The treated larvae are stored at 70°F, and 48 hours later the mortality is recorded. Test concentrations range from 0.5 PPM down to that at which approximately 50% mortality occurs.

The mark [10] stands for this setting: systemic, chemical in soil, mortality after 7 days.
[11] abbreviates: spray on 1-month-old nymphs, mortality after 7 days.

With `CCN(C(=NC(=O)CSP(=S)(OC)OC)OC)c1cccc(C)c1` [Compound 19], the “Insecticide Activity - Approximate LD50, HF (Housefly)” value (“Insecticide Activity … (Housefly)” below) in [1] is reported as 62 μg/25 F. Moreover, the “Insecticide Activity - Approximate LD50, GPA (Green Peach Aphid)” value (shortened to “Insecticide Activity … (Green Peach Aphid)”) in test [2] is given as “.03%”. For the same compound, the “Insecticide Activity - Approximate LD50, BA (Black Bean Aphid - direct spray)” value in [3] is recorded as “.002%”. For the same compound, the figures for the LC50 in test [4] (setting [10]) and in test [9] were more than 10 µg/mL and more than 1 µg/mL, respectively. Also, in test [5], the “Insecticide Activity - Approximate LD50, LB (Lygus Bug)” value (“Insecticide Activity … (Lygus Bug)” below) is listed as “> .05%”. In addition, the “Insecticide Activity - Approximate LD50, GR (German Cockroach)” value (“Insecticide Activity … (German Cockroach)” below) in test [6] (setting [11]) was “> .1%”. Also, the “Insecticide Activity - Approximate LD50, CL (Cabbage Looper)” value (shortened to “Insecticide Activity … (Cabbage Looper)”) in test [7] was “> .1%”. Further, in test [8], the “Insecticide Activity - Approximate LD50, TBW (Tobacco Budworm)” value (shortened to “Insecticide Activity … (Tobacco Budworm)”) is listed as “> .1%”.
As for `CCOP(=S)(OCC)SCC(=O)N=C(OC)N(C)c1ccccc1` [Compound 8], the “Insecticide Activity … (Housefly)” value in test [1] was determined as 30 μg/25 F. For the same compound, in test [2], the “Insecticide Activity … (Green Peach Aphid)” value is on record as “.03%”. Also, in [3], the “Insecticide Activity - Approximate LD50, BA (Black Bean Aphid - direct spray)” value was “.0008%”. The LC50 in test [4] (soil) and in test [9] was more than 1 µg/mL in each case. Moreover, in test [5], the “Insecticide Activity … (Lygus Bug)” value is listed as “> .05%”. Besides, the “Insecticide Activity … (German Cockroach)” value in [6] (168 h) is “> .05%”. Also, in test [7], the “Insecticide Activity … (Cabbage Looper)” value was “> .1%”. Further, the “Insecticide Activity … (Tobacco Budworm)” value in [8] is given as “.1%”.
For `C=CCN(C(=NC(=O)CSP(=S)(OC)OC)OC)c1ccccc1` [Compound 11], the “Insecticide Activity … (Housefly)” value in test [1] was determined as 30 μg/25 F. In addition, in test [2], the “Insecticide Activity … (Green Peach Aphid)” value is given as “.03%”. The “Insecticide Activity - Approximate LD50, BA (Black Bean Aphid - direct spray)” value in [3] is “.005%”. Also, the LC50 in test [4] (setting [10]) was more than 10 µg/mL; in [9], more than 1 µg/mL. In addition, the “Insecticide Activity … (Lygus Bug)” value in [5] is “> .05%”. Also, the “Insecticide Activity … (German Cockroach)” value in [6] (setting [11]) is “> .1%”. Further, in [7], the “Insecticide Activity … (Cabbage Looper)” value was “> .1%”. Moreover, the “Insecticide Activity … (Tobacco Budworm)” value in test [8] was “> .1%”.
